# Measured values taken from patent EP1561465A2, “Methods of use of fluoroquinolone compounds against bacteria” (LG Life Sciences, Ltd., priority 1999, dated 2001).
# Read-outs that look alike come from different tables or passages of the source.
# Experiments:
# Type in all cases: cell-based
# [1] = test system: Mycobacterium tuberculosis (MTB); test: MIC by proportions method (NCCLS M24-T, 1995), 82 MTB strains; details: Mycobacterium tuberculosis; 82 MTB strains
# [2] = test system: Salmonella spp.; test: MIC by agar dilution (NCCLS M7-A4), 288 enteropathogenic isolates, eight quinolones; details: for MIC: ciprofloxacin MIC ≥[…], read-out: MIC
# [3] = test system: Enterococcus faecalis; test: MIC by agar dilution (NCCLS), 411 isolates Buenos Aires 1998-99; details: Enterococcus faecalis (n = 48)
# [4] = test system: Haemophilus influenzae; test: MIC by broth microdilution (NCCLS), dried MicroScan panels, clinical isolates 1998-1999; details: for MIC90: Haemophilus influenzae
# [5] = test system: Pseudomonas aeruginosa; test: MIC by agar dilution (NCCLS), 322 nosocomial Gram negative isolates, Athens 1998; details: n = 57 isolates
# [6] = test system: Enterobacter spp.; test: as above; details: Enterobacter, n = 57 isolates
# [7] = test system: Streptococcus pneumoniae; test: MIC by E-test (broth microdilution for gemifloxacin), 107 pneumococcal carrier isolates, Athens 1998; details: E-test; for MIC50 / MIC90: Streptococcus pneumoniae; for MIC50: read-out: MIC50; for MIC90: read-out: MIC90
# Protocol: Susceptibility testing was performed by agar dilution or epsilometer method (E-test), as recommended by the NCCLS. […] The susceptibility profiles of the strains were assessed using the Epsilometer method (E-test). The isolates were subdivided into two groups according to their penicillin susceptibility patterns (penicillin-susceptible and penicillin-intermediate.
# [8] = test system: Shigella spp.; test: MIC by agar dilution (NCCLS M7-A4), 288 enteropathogenic isolates, gemifloxacin and 15 other antimicrobials; details: Shigella spp. N= 21
# Summary of the method: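 Agar dilution with ~10^4 cfu/spot inoculum; plates incubated aerobically at 35 °C for 24 h, except C. jejuni, held microaerophilically for 48 h. MIC taken as lowest antibiotic concentration with no visible growth.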
# [9] = test system: Streptococcus pneumoniae; test: MIC by NCCLS reference broth microdilution, 450 respiratory tract pathogens; details: Streptococcus pneumoniae
# [10] = test system: Haemophilus influenzae; test: as above; details: Haemophilus influenzae; for MIC90: read-out: MIC90
# [11] = test system: Moraxella catarrhalis; test: as above
# [12] = test system: P. aeruginosa; test: MIC by two-fold serial agar dilution, quinolone-resistant strains; details: Pseudomonas aeruginosa
# [13] = test system: Streptococcus pneumoniae; test: MIC by NCCLS broth microdilution, 1100 Japanese clinical isolates 1997-1998; details: for MIC50 / MIC90 / MIC: Streptococcus pneumoniae; for MIC50: read-out: MIC50; for MIC90: read-out: MIC90; for MIC: Streptococcus pneumoniae quinolone resistant
# [14] = test system: Enterobacter cloacae; test: as above; details: Enterobacter cloacae (n=40)
# [15] = test system: Salmonella spp.; test: as above; details: Salmonella spp. (n=29)
# [16] = Haemophilus influenzae (300 isolates)
# [17] = Penicillin-intermediate S. pneumoniae (n = 24)
# [18] = Penicillin-susceptible S. pneumoniae (n = 107)
# [19] = Streptococcus pneumoniae (n = 100)
# [20] = erythromycin resistant M phenotype (n = 16)
# [21] = erythromycin resistant MLSB phenotype (n = 16)
# [22] = penicillin intermediate (n = 16)
# [23] = penicillin susceptible (n = 20)
# [24] = Haemophilus influenzae (n = 100)
# [25] = Streptococcus pneumoniae amoxicillin resistant (n=40)
# [26] = Streptococcus pneumoniae amoxicillin susceptible (n=35)
# [27] = Streptococcus pneumoniae erythromycin resistant (n=34)
# [28] = Streptococcus pneumoniae erythromycin susceptible (n=11)
structure (smiles),measurement,setting,value
"CC1COc2c(N3CCN(C)CC3)c(F)cc3c(=O)c(C(=O)O)cn1c23 (centres unmarked) [Ofloxacin, ofloxacin]",MIC90,[1],2 µg/mL
same,MIC,[2]; S. hadar (n = 2),2 µg/mL
same,MIC,[2]; S. newport (n = 1),2 µg/mL
same,% Susceptible,[2]; Salmonella spp. (n = 106),100%
same,MIC50,[2]; Salmonella spp. (n = 106),0.12 µg/mL
same,MIC90,[2]; Salmonella spp. (n = 106),0.5 µg/mL
same,MIC Range,[2]; Salmonella spp. (n = 106),0.06 to 2 µg/mL
same,MIC,"[2]; Salmonella, S. tshiongwe (n = 1)",2 µg/mL
same,MIC90,[3],> 32 µg/mL
same,MIC50,[4]; [16],≤ 0.06 µg/mL
same,MIC Range,[4]; [16],≤0.06 to 0.5 µg/mL
same,MIC90,[4]; [16],≤ 0.06 µg/mL
same,MIC90,[4]; β-lactamase negative (234),≤ 0.06 µg/mL
same,MIC90,[4]; β-lactamase positive (66),0.12 µg/mL
same,MIC50,[5],2 µg/mL
same,MIC90,[5],> 64 µg/mL
same,MIC50,[6]; read-out: MIC50,0.125 µg/mL
same,MIC90,[6]; read-out: MIC90,64 µg/mL
same,MIC Range,"[7]; Penicillin-intermediate S. pneumoniae (n = 24), in µg/mL (unit assumed)",0.75-6
same,MIC50,[7]; [17],2 µg/mL
same,MIC90,[7]; [17],3 µg/mL
same,MIC50,[7]; [18],2 µg/mL
same,MIC90,[7]; [18],4 µg/mL
same,MIC,"[8]; 24 h, read-out: MIC (mg/L) Range",0.015 to 0.06 mg/L
same,MIC,[8]; read-out: MIC (mg/L) 50%,0.03 mg/L
same,MIC,[8]; read-out: MIC (mg/L) 90%,0.06 mg/L
"C[C@@H]1CN(c2c(F)c(N)c3c(=O)c(C(=O)O)cn(C4CC4)c3c2F)C[C@H](C)N1 [Sparfloxacin, sparfloxacin]",MIC,[9]; [19],0.12 to 1 µg/mL
same,MIC50,[9]; [19],0.5 µg/mL
same,MIC90,[9]; [19],0.5 µg/mL
same,MIC,[9]; [20],0.25 µg/mL
same,MIC50,[9]; [20],0.25 µg/mL
same,MIC90,[9]; [20],0.25 µg/mL
same,MIC,[9]; [21],0.12 to 0.5 µg/mL
same,MIC50,[9]; [21],0.25 µg/mL
same,MIC90,[9]; [21],0.25 µg/mL
same,MIC,[9]; multi-drug resistant (n = 16),0.12 to 0.5 µg/mL
same,MIC50,[9]; multi-drug resistant (n = 16),0.5 µg/mL
same,MIC90,[9]; multi-drug resistant (n = 16),0.5 µg/mL
same,MIC,[9]; [22],0.5 to 1 µg/mL
same,MIC50,[9]; [22],0.5 µg/mL
same,MIC90,[9]; [22],0.5 µg/mL
same,MIC,[9]; penicillin resistant (n = 18),0.25 to 1 µg/mL
same,MIC50,[9]; penicillin resistant (n = 18),0.5 µg/mL
same,MIC90,[9]; penicillin resistant (n = 18),1 µg/mL
same,MIC,[9]; [23],0.12 to 0.5 µg/mL
same,MIC50,[9]; [23],0.25 µg/mL
same,MIC90,[9]; [23],0.25 µg/mL
same,MIC,[10]; [24],0.0075 to 0.25 µg/mL
same,MIC50,[10]; [24],0.01 µg/mL
same,MIC90,[10]; [24],0.03 µg/mL
same,MIC,[10]; β-lactamase negative (n = 80),0.0075 to 0.25 µg/mL
same,MIC50,[10]; β-lactamase negative (n = 80),0.015 µg/mL
same,MIC90,[10]; β-lactamase negative (n = 80),0.25 µg/mL
same,MIC,[10]; β-lactamase positive (n = 20),0.0075 to 0.12 µg/mL
same,MIC50,[10]; β-lactamase positive (n = 20),0.015 µg/mL
same,MIC90,[10]; β-lactamase positive (n = 20),0.03 µg/mL
same,MIC,[11]; Moraxella catarrhalis (n = 50),0.00375 to 0.06 µg/mL
same,MIC50,[11]; Moraxella catarrhalis (n = 50),0.015 µg/mL
same,MIC90,[11]; Moraxella catarrhalis (n = 50),0.03 µg/mL
same,MIC,[11]; β-lactamase negative (n = 13),0.00375 to 0.06 µg/mL
same,MIC50,[11]; β-lactamase negative (n = 13),0.0075 µg/mL
same,MIC90,[11]; β-lactamase negative (n = 13),0.06 µg/mL
same,MIC,[11]; β-lactamase positive (n = 37),0.00375 to 0.06 µg/mL
same,MIC50,[11]; β-lactamase positive (n = 37),0.015 µg/mL
same,MIC90,[11]; β-lactamase positive (n = 37),0.03 µg/mL
same,MIC,[12],2 µg/mL
same,MIC Range,[13]; [25],0.125 to 4 µg/mL
same,MIC Range,[13]; [26],0.032 to 4 µg/mL
same,MIC Range,[13]; [27],0.032 to 4 µg/mL
same,MIC Range,[13]; [28],0.125 to 0.25 µg/mL
same,MIC50,[13]; [25],0.25 µg/mL
same,MIC90,[13]; [25],0.25 µg/mL
same,MIC50,[13]; [26],0.25 µg/mL
same,MIC90,[13]; [26],0.5 µg/mL
same,MIC50,[13]; [27],0.25 µg/mL
same,MIC90,[13]; [27],0.25 µg/mL
same,MIC50,[13]; [28],0.25 µg/mL
same,MIC90,[13]; [28],0.25 µg/mL
same,MIC,[13]; strain TMS1,0.5 µg/mL
same,MIC,[13]; strain TMS2,8 µg/mL
same,MIC50,[14],0.032 µg/mL
same,MIC90,[14],1 µg/mL
same,MIC Range,[14],≤0.008 to 2 µg/mL
same,MIC50,[15],0.032 µg/mL
same,MIC90,[15],0.063 µg/mL
same,MIC Range,[15],0.016 to 0.063 µg/mL
